Measurements published in US20240041813A1, “VERY-LONG-CHAIN POLYUNSATURATED FATTY ACIDS, ELOVANOID HYDROXYLATED DERIVATIVES, AND METHODS OF USE” (priority 2020, published 2024).
Entries after “also recorded” stand apart in the source; their conditions may differ.

Experiments:
[1] = tested on: receptor-binding domain (RBD) of the SARS-CoV-2 spike; format: cell-based, human
Cdkn2a (p16INK4a) = assay: HCEC challenged with IFNγ: Cdkn2a gene expression; format: cell-based, human; settings: IFNγ 100 ng/ml
Description: All experiments with human corneal epithelial cells were approved by the Institutional Review Board of LSUHNO and conducted in accordance with NIH guidelines. HCEC were kept frozen in the laboratory at passage 2544. Cells were maintained in keratinocyte growth (KGM) medium containing the keratinocyte basal medium (KBM) (Lonza: CC-3101) supplemented with bovine pituitary extract (BPE), hEGF, Insulin, Hydrocortisone and Gentamicin Sulfate-Amphotericin (GA-1000) (Lonza, Cat. CC-4131). For all experiments, cells were seeded at 30,000 cells/cm2.
For screening the stimulation of receptor ACE2 by cytokines, the HCEC were cultured with KGM until 50-60% confluence. Then, changed to KBM containing IL-1β, -2, -6 and 8, IFN-α, -ε, and -γ or TNFα at 1, 10 or 100 ng/ml. The cells were harvested after 6 hours and analyze for the gene expression of Ace2. In other experiments, HCEC were stimulated with IFNγ, and thereafter, lipid mediators were added. For the Alexa 594-conjugated RBD binding, IFNγ was used as a cytokine trigger. At 12 hours after cytokine exposure and lipid mediator treatments, […] of labeled RBD was added to the medium. The evaluation of RBD binding was conducted 24 hours after.
Quantitative PCR was performed with the Biomark HD system (Fluidigm, San Francisco, CA, USA). Briefly, 200 ng of RNA was reverse-transcribed using iScript Reverse Transcription Supermix (Bio-Rad), and the cDNA was pre-amplified using the PreAmp Master Mix (PN 100-5580; Fluidigm). The cDNA was then subjected to Exonuclease I treatment and diluted 5 times in TE Buffer. The qPCR reaction mixture and primer reaction mixture were made and loaded into the Biomark 96.96 IFC™ (Integrated Fluidic Circuit). The enzyme reaction was mixed using Juno™ Controller (Fluidigm) and run using the cycling program of (i) 70° C. for 40 minutes followed by 60° C. for 30 seconds, (ii) hot start for 1 minute at 95° C., (iii) 30 cycles of denaturation at 96° C. for 5 seconds, and annealing at 60° C. for 20 seconds, and (iv) melting curves between 60° C. and 95° C. with 1° C. increments/3 seconds. The Ct value of target genes was normalized to the house-keeping genes Gapdh, Hprt1, and Tfrc before normalized to the vehicle group. Relative fold changes from the ΔΔCT calculation was used to make the graph.

injured rat cornea = assay: Rat cornea alkali burn: corneal RNA-seq, cytokine storm, NFkB/inflammation, senescence, integrin and protease genes; format: in vivo
Experimental: The rats were anesthetized by intraperitoneal injection of Ketamine (50-100 mg/kg) plus xylazine (5-10 mg/kg). A 4 mm diameter filter paper soaked in 1 N NaOH was placed on the central cornea of the right eye for 45 seconds, and then the eye was thoroughly washed with […] of saline. After injury, the rats were randomly divided into five treatment groups: vehicle; lipoxin A4 (LXA4) from Cayman Chemical (Ann Arbor, MI, USA); R,R Resolvin D6 isomer (RvD6i), R,R neuroprotection D (NPD1), and elovanoid (ELV)-N32. All lipid solutions were prepared at the final concentration of […] using PBS with the minimal contamination of ethanol by evaporating the ethanol and immediately dissolve the lipids in PBS, then vortex well for 2 min. Topical administration (20 μl) was done 3×/day for 14 days. The experiments were double-blinded with the lipid mediators coded during the whole experiments. At the end of the study, when all data was collected, the code was opened.
Injured corneas (n=5/condition) were harvested and homogenized with TRIzol (Thermo Fisher Scientific) on ice with a glass Dounce homogenizer. RNA sequencing was performed as described^14. Briefly, after mRNA extraction and determination of purity, 8 ng of total RNA was reverse transcribed, and total cDNAs were amplified using ISPCR primer, and the library was made with the Nextera XT DNA library preparation kit (Illumina, San Diego, CA, USA). The libraries were pooled with the same molarity and sequenced using the NextSeq 500/550 High Output Kit v2 (75 cycles, Illumina). After demultiplexing, RNA-seq data were aligned to the Rattus Norvegicus reference genome (.ensembl.org/pub/release-98/fasta/rattus_norvegicus/dna/) using the Subread package v2.0.1 alignment function39. The BAM files for sequencing data alignment were counted using featureCounts function of Subread tool^40 using the macOS Catalina. The raw count data were subjected to differential gene expression analysis using DESeq2 package for R^41 with the vehicle group as reference. The adjusted p-values were named as the false discover rate (FDR).

ACE-2 receptor = assay: ACE-2 protein abundance by Jess capillary western in human alveoli in culture; format: cell-based; settings: effect dependent on addition of IL-1b
Description: The Simple Protein platform Jess allows running a protein mixture in a capillary system that also serves as a probing matrix for the antibodies. This platform obviates the need to transfer the size-separated proteins onto a membrane with the consequent loss of sample. The sample amount that can be run in Jess is several times smaller than that required for Western blots. Therefore, high throughput is facilitated in cell cultures. The antibodies to this protein have been validated in our laboratory.
c.1.b. Protein abundance using Jess technology. The Simple Protein platform Jess allows running a protein mixture in a capillary electrophoretic system as a probing matrix for the antibodies (we refer to western blot as “Jess WB” here). This platform obviates the need to transfer the size-separated proteins onto a membrane with a potential loss of sample. The sample size run in Jess is several times smaller than that for classical WB. (400 ng protein/capillary column vs. 10 or more μg for classical WB). The proteins we assess will include ACE2, Furin, ADAM17, DPP4, TMPRSS2, protein surfactant D, and Cathepsin L. In addition, senescence and SASP proteins will also be analyzed. […]
ACE2 Protein abundance using Jess technology. […] Soluble protein concentration was determined by BCA assay (Thermo Fisher Scientific, Cat. 23225) and 0.4 μg used/reaction. […]

[2] = rat cornea, RNA-seq 14 days after injury

**Q.** What does the source list for CC/C=C\CC(O)\C=C/C=C/C=C/C(O)C/C=C\C/C=C\CCCCCCCCCCCCC(=O)O [ELV-N32, (14Z,17Z,20R,21E,23E,25Z,27S,29Z)-20,27-dihydroxydo-triaconta-14,17,21,23,25,29-hexaenoic acid]?
**A.** RBD of the SARS-CoV-2 spike entrance / internalized RBD [1]: diminishes; RBD protein internalization (RBD located below the membrane line) [1]: decrease; Cdkn2a activation (Cdkn2a (p16INK4a)): decrease; Furin expression (injured rat cornea; cornea injury model (FIG. 57)): remarkably decreases; 51 injury-upregulated genes (cytokines, SASP, NFkB inflammatory) (injured rat cornea; [2]): most are inhibited; Il6 and Vegfa expression (injured rat cornea; [2]): reduced; integrin gene expression (Itga5 and Itgb 1) (injured rat cornea; [2]): significantly decreased; also recorded: decrease; transcriptomic profile in PCA plot relative to control cornea (injured rat cornea; [2]): nearest to the normal cornea; Cdkn2a gene expression (p16INK4a) (injured rat cornea; rat cornea, RNA-seq normalized counts, 14 days after injury): decrease; expression of the ACE-2 receptor (protein abundance, Jess) (ACE-2 receptor): downregulate
